From ChEMBL document CHEMBL1130544, “Catalysis of the Kemp elimination by antibodies elicited against a cationic hapten” (Bioorg Med Chem Lett, 1997)

Assays:
Format in all cases: ADME
[1] = Kinetic parameter for antibody-catalyzed Kemp elimination, at pH 7.1, 30C, using 1% acetonitrile and 4B2 as catalyst was expressed as Kcat/KM
[2] = Kinetic parameter for antibody-catalyzed Kemp elimination, at pH 7.1, 30C, using 10% acetonitrile and 4B2 as catalyst was expressed as Kcat/KM
[3] = Kinetic parameter for antibody-catalyzed Kemp elimination, at pH 7.1, 30C, using 1% acetonitrile and 4B2 as catalyst was expressed as Kcat
[4] = Kinetic parameter for antibody-catalyzed Kemp elimination, at pH 7.1, 30C, using 0.25% acetonitrile and 4B2 as catalyst was expressed as Kcat/KM
[5] = Kinetic parameter for antibody-catalyzed Kemp elimination, at pH 7.1, 30C, using 1% acetonitrile and 4B2 as catalyst was expressed as KM
[6] = Kinetic parameter for antibody-catalyzed Kemp elimination, at pH 7.1, 30C, using 5% acetonitrile and 4B2 as catalyst was expressed as KM
[7] = Kinetic parameter for antibody-catalyzed Kemp elimination, at pH 7.1, 30C, using 5% acetonitrile and 4B2 as catalyst was expressed as Kcat/Kuncat
[8] = Rate constant ratio at 30 degree C in phosphate buffer pH 7.1, 0.5 % acetonitrile
[9] = Kinetic parameter for antibody-catalyzed Kemp elimination, at pH 7.1, 30C, using 5% acetonitrile and 4B2 as catalyst was expressed as Kcat
[10] = Kinetic parameter for antibody-catalyzed Kemp elimination, at pH 7.1, 30C, using 5% acetonitrile and 4B2 as catalyst was expressed as Kcat/KM
[11] = Kinetic parameter for antibody-catalyzed Kemp elimination, at pH 7.1, 30C, using 1% acetonitrile and 6C2 as catalyst was expressed as Kcat/KM
[12] = Rate constant at 30 degree C in phosphate buffer pH 7.1, 0.5 % acetonitrile was expressed as Kcat/KM
[13] = Kinetic parameter for antibody-catalyzed Kemp elimination, at pH 7.1, 30C, using 1% acetonitrile and 4B2 as catalyst was expressed as Kcat/Kuncat
[14] = Rate constant with triethylamine at 30 degree C in 0.1 M potassium chloride was expressed as Kamine

SMILES | k cat/Km [1] [M⁻¹ s⁻¹] | k cat/Km [2] [M⁻¹ s⁻¹] | k cat [3] [s⁻¹] | k cat/Km [4] [M⁻¹ s⁻¹] | Km [5] [µM] | Km [6] [µM] | k cat/Kuncat [7] | Ratio [8] | k cat [9] [s⁻¹] | k cat/Km [10] [M⁻¹ s⁻¹] | k cat/Km [11] [M⁻¹ s⁻¹] | k cat/Km [12] [M⁻¹ s⁻¹] | k cat/Kuncat [13] | K amine [14] [M⁻¹ s⁻¹]
O=[N+]([O-])c1ccc2oncc2c1 | 29.1 | 5.9 | 0.035 | 53 | 1200 | 2100 | 6300 | 48 | 0.022 | 10.1 | 1.4 | 39 | 18000 | 0.82
O=[N+]([O-])c1ccc2cnoc2c1 |  |  |  |  |  |  |  | 38 |  |  |  | 6 |  | 0.16
c1ccc2oncc2c1 [BENZO[D]ISOXAZOLE] |  |  |  |  |  |  |  | 32 |  |  |  | 0.6 |  | 0.0185
